Source: patent publication US9937235B2, “Lipidated peptides as anti-obesity agents” (USTAV ORGANICKE CHEMIE A BIOCHEMIE AKADEMIE VED CR, V.V.I, priority 2012, dated 2018)
Where a SMILES comes first, the peptide text is derived from it. [ ]: non-standard residue; d: D form. The star is where a group is joined. Phe(4-NO2) = N[C@@H](Cc1ccc([N+](=O)[O-])cc1)C(=O)O; Phe(3,4-Cl2) = N[C@@H](Cc1ccc(Cl)c(Cl)c1)C(=O)O; Palmitoyl = CCCCCCCCCCCCCCCC(=O)*; Myristoyl = CCCCCCCCCCCCCC(=O)*; Nle = CCCC[C@H](N)C(=O)O; Octanoyl = CCCCCCCC(=O)*

What follows are molecules tested on fasted C57BL/6 mice (assay: Food intake in fasted mice after SC administration). Conditions: fasted C57BL/6 mice, 5 mg/kg SC, 45 min.
Type: in vivo, mouse
Method: Male C57BL/6 mice (An Lab, Prague 4) were bred in the accredited animal facility in the Institute of Organic Chemistry and Biochemistry, Czech Academy of Sciences, Prague, at the Institute of Molecular Genetics, Prague 4, at the temperature of 22±2° C. with access to food and water ad libitum. The day/night cycle was 12/12 hours (light turned on at 6:00 am). Animals were treated according to the Animal Protection Act (Act No. 246/1992). The males were fed standard chow diet St-1 (Mlýn Kocanda, Praha, Czech Republic) which contained 66% saccharides, 25% proteins and 9% lipids with a caloric value of 3.4 kcal/g.
The food was withdrawn 17 hours prior to injection of lipidated peptide and free access to water was maintained. The administration of saline, PrRP or lipidated analogs was performed either by SC injection at doses of 1-10 mg/kg (volume 0.2 ml/mouse), or by ICV using infusion pump (cannulae were inserted into the third brain ventricle 4 days before the experiment following the procedure of Maixnerová et al. (Maixnerová et al., 2011)). The single dose of peptide was 4 nmol/mouse (5 μl/mouse).
Fifteen minutes after the lipidated peptide administration, the mice were given pre-weighed food. The food was then weighed every 30 minutes for 5-10 hours. The administration of every dose was performed at least twice and one group of mice consisted of at least 6 mice. The results were presented as % of food intake as compared with the control group injected with saline.
Statistical evaluation was performed using program Graph-Pad Prism Software (San Diego, Calif., USA), and the one-way ANOVA with a subsequent Dunnettovým post-hoc test. The difference in food intake between mice injected with saline and mice injected with the examined peptide were considered statistically significant at P<0.05.

Row | Compound | Food intake in mice (5 mg/kg SC) % saline-treated group (45 min) [%]
1 | CCCCCCCCCCCCCC(=O)N[C@@H](CO)C(=O)N[C@@H](CCCNC(=N)N)C(=O)N[C@@H](C)C(=O)N[C@@H](Cc1c[nH]cn1)C(=O)N[C@@H](CCC(N)=O)C(=O)N[C@@H](Cc1c[nH]cn1)C(=O)N[C@@H](CO)C(=O)N[C@@H](CCCC)C(=O)N[C@@H](CCC(=O)O)C(=O)N[C@H](C(=O)N[C@@H](CCCNC(=N)N)C(=O)N[C@H](C(=O)N1CCC[C@H]1C(=O)N[C@@H](CC(=O)O)C(=O)N[C@H](C(=O)N[C@@H](CC(N)=O)C(=O)N1CCC[C@H]1C(=O)N[C@@H](C)C(=O)N[C@@H](Cc1c[nH]c2ccccc12)C(=O)N[C@@H](Cc1ccc(O)cc1)C(=O)N[C@H](C(=O)NCC(=O)N[C@@H](CCCNC(=N)N)C(=O)NCC(=O)N[C@H](C(=O)N[C@@H](CCCNC(=N)N)C(=O)N1CCC[C@H]1C(=O)N[C@H](C(=O)NCC(=O)N[C@@H](CCCNC(=N)N)C(=O)N[C@@H](Cc1ccc(Cl)c(Cl)c1)C(N)=O)C(C)C)[C@@H](C)CC)[C@@H](C)O)[C@@H](C)CC)[C@@H](C)O)[C@@H](C)O [Analog 25] (Myristoyl-SRAHQHS[Nle]ETRTPDINPAWYTGRGIRPVGR[Phe(3,4-Cl2)]-NH2) | 13
2 | CCCCCCCCCCCCCCCC(=O)N[C@@H](CO)C(=O)N[C@@H](CCCNC(=N)N)C(=O)N[C@@H](C)C(=O)N[C@@H](Cc1c[nH]cn1)C(=O)N[C@@H](CCC(N)=O)C(=O)N[C@@H](Cc1c[nH]cn1)C(=O)N[C@@H](CO)C(=O)N[C@@H](CCCC)C(=O)N[C@@H](CCC(=O)O)C(=O)N[C@H](C(=O)N[C@@H](CCCNC(=N)N)C(=O)N[C@H](C(=O)N1CCC[C@H]1C(=O)N[C@@H](CC(=O)O)C(=O)N[C@H](C(=O)N[C@@H](CC(N)=O)C(=O)N1CCC[C@H]1C(=O)N[C@@H](C)C(=O)N[C@@H](Cc1c[nH]c2ccccc12)C(=O)N[C@@H](Cc1ccc(O)cc1)C(=O)N[C@H](C(=O)NCC(=O)N[C@@H](CCCNC(=N)N)C(=O)NCC(=O)N[C@H](C(=O)N[C@@H](CCCNC(=N)N)C(=O)N1CCC[C@H]1C(=O)N[C@H](C(=O)NCC(=O)N[C@@H](CCCNC(=N)N)C(=O)N[C@@H](Cc1ccc(Cl)c(Cl)c1)C(N)=O)C(C)C)[C@@H](C)CC)[C@@H](C)O)[C@@H](C)CC)[C@@H](C)O)[C@@H](C)O [Analog 26] (Palmitoyl-SRAHQHS[Nle]ETRTPDINPAWYTGRGIRPVGR[Phe(3,4-Cl2)]-NH2) | 5
3 | CCCCCCCCCCCCCCCC(=O)N[C@@H](CO)C(=O)N[C@@H](CCCNC(=N)N)C(=O)N[C@@H](C)C(=O)N[C@@H](Cc1c[nH]cn1)C(=O)N[C@@H](CCC(N)=O)C(=O)N[C@@H](Cc1c[nH]cn1)C(=O)N[C@@H](CO)C(=O)N[C@@H](CCCC)C(=O)N[C@@H](CCC(=O)O)C(=O)N[C@H](C(=O)N[C@@H](CCCNC(=N)N)C(=O)N[C@H](C(=O)N1CCC[C@H]1C(=O)N[C@@H](CC(=O)O)C(=O)N[C@H](C(=O)N[C@@H](CC(N)=O)C(=O)N1CCC[C@H]1C(=O)N[C@@H](C)C(=O)N[C@@H](Cc1c[nH]c2ccccc12)C(=O)N[C@@H](Cc1ccc(O)cc1)C(=O)N[C@H](C(=O)NCC(=O)N[C@@H](CCCNC(=N)N)C(=O)NCC(=O)N[C@H](C(=O)N[C@@H](CCCNC(=N)N)C(=O)N1CCC[C@H]1C(=O)N[C@H](C(=O)NCC(=O)N[C@@H](CCCNC(=N)N)C(=O)N[C@@H](Cc1ccc([N+](=O)[O-])cc1)C(N)=O)C(C)C)[C@@H](C)CC)[C@@H](C)O)[C@@H](C)CC)[C@@H](C)O)[C@@H](C)O [Analog 29] (Palmitoyl-SRAHQHS[Nle]ETRTPDINPAWYTGRGIRPVGR[Phe(4-NO2)]-NH2) | 0.7
4 | CCCCCCCCCCCCCC(=O)N[C@@H](CO)C(=O)N[C@@H](Cc1c[nH]cn1)C(=O)N[C@@H](CCC(N)=O)C(=O)N[C@@H](CCCNC(=N)N)C(=O)N1CCC[C@H]1C(=O)N[C@@H](C)C(=O)N[C@@H](CC(=O)O)C(=O)N[C@H](C(=O)N[C@@H](Cc1c[nH]cn1)C(=O)N[C@@H](Cc1c[nH]c2ccccc12)C(=O)N[C@@H](Cc1ccc(O)cc1)C(=O)N1CCC[C@H]1C(=O)N[C@@H](CCCNC(=N)N)C(=O)NCC(=O)N[C@@H](CCCC)C(=O)N[C@@H](Cc1ccccc1)C(=O)N1CCC[C@H]1C(=O)N[C@H](C(=O)N[C@H](C(=O)NCC(=O)N[C@@H](CCCNC(=N)N)C(=O)N[C@H](C(=O)N[C@H](C(=O)N[C@@H](C)C(=O)N[C@@H](CCCNC(=N)N)C(=O)N[C@@H](CC(N)=O)C(=O)NCC(=O)N[C@@H](CCC(=O)O)C(=O)N[C@H](C(=O)N[C@@H](CO)C(=O)N[C@@H](CCCNC(=N)N)C(=O)O)C(C)C)[C@@H](C)O)[C@@H](C)CC)[C@@H](C)CC)[C@@H](C)O)[C@@H](C)O [Analog 31] (Myristoyl-SHQRPADTHWYPRG[Nle]FPTIGRITARNGEVSR-OH; C-terminus assumed) | 100
5 | CCCCCCCCCCCCCCCC(=O)N[C@@H](CO)C(=O)N[C@@H](CCCNC(=N)N)C(=O)N[C@@H](C)C(=O)N[C@@H](Cc1c[nH]cn1)C(=O)N[C@@H](CCC(N)=O)C(=O)N[C@@H](Cc1c[nH]cn1)C(=O)N[C@@H](CO)C(=O)N[C@@H](CCCC)C(=O)N[C@@H](CCC(=O)O)C(=O)N[C@H](C(=O)N[C@@H](CCCNC(=N)N)C(=O)N[C@H](C(=O)N1CCC[C@H]1C(=O)N[C@@H](CC(=O)O)C(=O)N[C@H](C(=O)N[C@@H](CC(N)=O)C(=O)N1CCC[C@H]1C(=O)N[C@@H](C)C(=O)N[C@@H](Cc1c[nH]c2ccccc12)C(=O)N[C@@H](Cc1ccc(O)cc1)C(=O)N[C@H](C(=O)NCC(=O)N[C@@H](CCCNC(=N)N)C(=O)NCC(=O)N[C@H](C(=O)N[C@@H](CCCNC(=N)N)C(=O)N1CCC[C@H]1C(=O)N[C@H](C(=O)NCC(=O)N[C@@H](CCCNC(=N)N)C(=O)N[C@@H](Cc1ccc(O)cc1)C(N)=O)C(C)C)[C@@H](C)CC)[C@@H](C)O)[C@@H](C)CC)[C@@H](C)O)[C@@H](C)O [Analog 35] (Palmitoyl-SRAHQHS[Nle]ETRTPDINPAWYTGRGIRPVGRY-NH2) | 22
6 | CCCCCCCCCCCCCC(=O)N[C@H](Cc1ccccc1)C(=O)N[C@H](CCCNC(=N)N)C(=O)NCC(=O)N[C@H](C(=O)N1CCC[C@H]1C(=O)N[C@@H](CCCNC(=N)N)C(=O)N[C@H](C(=O)NCC(=O)N[C@@H](CCCNC(=N)N)C(=O)NCC(=O)N[C@H](C(=O)N[C@@H](Cc1ccc(O)cc1)C(=O)N[C@@H](Cc1c[nH]c2ccccc12)C(=O)N[C@@H](C)C(=O)N1CCC[C@H]1C(=O)N[C@@H](CC(N)=O)C(=O)N[C@H](C(=O)N[C@@H](CC(=O)O)C(=O)N1CCC[C@H]1C(=O)N[C@H](C(N)=O)[C@@H](C)O)[C@@H](C)CC)[C@@H](C)O)[C@@H](C)CC)C(C)C [Analog 37] (Myristoyl-[dF][dR]GVPRIGRGTYWAPNIDPT-NH2) | 100
7 | CC[C@H](C)[C@H](NC(=O)CNC(=O)[C@H](CCCNC(=N)N)NC(=O)[C@H](CO)NC(=O)[C@H](C)NC(=O)[C@H](Cc1ccc(O)cc1)NC(=O)[C@H](Cc1c[nH]c2ccccc12)NC(=O)[C@H](C)NC(=O)[C@@H]1CCCN1C(=O)[C@H](CC(N)=O)NC(=O)[C@@H](NC(=O)[C@H](CC(=O)O)NC(=O)[C@@H]1CCCN1C(=O)[C@@H](NC(=O)[C@H](CCCNC(=N)N)NC(=O)[C@@H](NC(=O)[C@H](CCC(=O)O)NC(=O)[C@H](CCSC)NC(=O)[C@H](CO)NC(=O)[C@H](Cc1c[nH]cn1)NC(=O)[C@H](CCCNC(=N)N)NC(=O)[C@H](Cc1c[nH]cn1)NC(=O)[C@@H](NC(=O)[C@H](CCCNC(=N)N)NC(=O)[C@@H](N)CO)[C@@H](C)O)[C@@H](C)CC)[C@@H](C)O)[C@@H](C)CC)C(=O)N[C@@H](CCCNC(=N)N)C(=O)N1CCC[C@H]1C(=O)N[C@H](C(=O)NCC(=O)N[C@@H](CCCNC(=N)N)C(=O)N[C@@H](Cc1ccccc1)C(N)=O)C(C)C [Analog 50] | 100
8 | CCCCCCCC(=O)N[C@H](C(=O)N1CCC[C@H]1C(=O)N[C@@H](CC(=O)O)C(=O)N[C@H](C(=O)N[C@@H](CC(N)=O)C(=O)N1CCC[C@H]1C(=O)N[C@@H](C)C(=O)N[C@@H](Cc1c[nH]c2ccccc12)C(=O)N[C@@H](Cc1ccc(O)cc1)C(=O)N[C@@H](C)C(=O)N[C@@H](CO)C(=O)N[C@@H](CCCNC(=N)N)C(=O)NCC(=O)N[C@H](C(=O)N[C@@H](CCCNC(=N)N)C(=O)N1CCC[C@H]1C(=O)N[C@H](C(=O)NCC(=O)N[C@@H](CCCNC(=N)N)C(=O)N[C@@H](Cc1ccccc1)C(N)=O)C(C)C)[C@@H](C)CC)[C@@H](C)CC)[C@@H](C)O [Analog 52] (Octanoyl-TPDINPAWYASRGIRPVGRF-NH2) | 100
